Data: US6632616B2, “Compounds that selectively bind to expanded polyglutamine repeat domains and methods of use thereof” (Duke University, priority 2000, dated 2003)
Entries after “also recorded” stand apart in the source; their conditions may differ. No end group written: not given here.

Columns and labels:
thio-Q62 = assay: Thioredoxin-polyglutamine turbidity (aggregation) assay, thio-Q62; type: biochemical; settings: for inhibition of polyglutamine-thioredoxin aggregation (FIG. 6 and 7): peptides at 1 and 10 microMolar; for Ability to Inhibit Aggregation: 62 glutamines, 10 days; for inhibition of thio-Q62 aggregation (in words): turbidity at 405 nm, FIG. 2
Experimental: (§1) Turbidity assays were performed in 200 μl reactions consisting of thioredoxin-polyglutamine in PBS in 96-well, low protein binding plates. Plates were incubated at 4° C. and turbidity measured at 405 nm on a Thermo Max plate reader (Molecular Devices).
(§2) Peptides were synthesized at the Howard Hughes Medical Institute peptide sequencing facility at Duke University with an acetylated amino terminus and protection of tryptophan with BOC during synthesis. Identical results were obtained with peptides obtained from Bio-Synthesis Inc. (Lewisville, Tex.). Stock solutions of peptides were prepared fresh daily by dissolving in dimethyl sulfoxide at 2.5 mM and incubated with thioredoxin-polyglutamine protein at 0.25-25 μM.
(§3) To monitor thioredoxin-polyglutamine protein aggregation a turbidometric assay was developed, similar to the assays commonly used to study microtubule assembly and β-amyloid aggregation (Jarrett, J. T. et al. (1993) Biochem 32, 4693-4697; Sloboda, R. D. et al. (1976) Biochem 15, 4497-4505). Solutions of thio-Q62 and 81 protein increased turbidity in a polyglutamine length-, time- and concentration-dependent manner (FIG. 1B and C; Time dependence of aggregation of thioredoxin-polyglutamine with 81 glutamines not shown). […] The pelleted and retained material was confirmed as thioredoxin-polyglutamine fusion protein containing 62 or 81 glutamines on western blots probed with anti-thioredoxin or anti-polyglutamine antibody (not shown). In contrast, thioredoxin-polyglutamine protein containing 19 or 35 glutamines (thio-Q19 or 35) was not pelleted by centrifugation and was not trapped by a 0.22 μm filter.

Qn-YFP = assay: Polyglutamine-YFP (Qn-YFP) aggregate formation in co-transfected COS-7 cells, all lengths; type: cell-based; settings: co-expression, 48 hours after transfection, FIG. 4
Experimental: (§4) COS-7 cells examined 48 hours after transfection using a Zeiss fluorescence microscope with the CFP/YFP filter set from Omega Optical Inc. The percentage of cells with aggregates was calculated by counting the number of transfected cells containing aggregate and dividing by the total number of transfected cells multiplied times 100. In each experiment at least 200 transfected cells were counted. Experiments were repeated at least four times. Error bars represent standard errors. *=p<0.05;**=p<0.01 (Student's t-test)
(§5) The CAG repeat of the Qn-GFP vector (Onodera, O. et al. (1996) FEBS Letters 399, 135-139) were inserted into the XhoI and EcoRI sites of the pEYFP-N1 vector (Clontech, Palo Alto, Calif.) to construct the Qn-YFP vectors. The polyglutamine-binding peptide and control constructs were prepared by ligating synthetic oligonucleotides into the XhoI and BamHI sites of the pECFP-N1 vector (Clontech) to obtain glutamine binding peptide 1-CFP (QBP1-CFP), scrambled QBP1-CFP (SCR-CFP), and a computer-generated random peptide-CFP (RAN)-CFP. The insert of QBP1-CFP was duplicated by PCR to obtain a tandem repeat of QBP1-CFP ((QBP1)2-CFP). The sequence of all constructs was confirmed by DNA sequencing. […]
(§6) COS-7 cells were grown and maintained in Dulbecco's modified Eagles' medium (DMEM) supplemented with 10% fetal calf serum (FCS). […] Cells were examined 48 hours after transfection using a Zeiss fluorescence microscope equipped with YFP/CFP filter sets (Omega Optical Inc., Brattleboro, Vt.). The percentage of cells with aggregates was calculated by dividing the number of cells with aggregates by the total number of fluorescent cells, multiplied by 100. […] Cells were incubated with 5 μM ethidium homodimer for 30 minutes (37° C.) and then examined under a fluorescence microscope equipped with a rhodamine filter set. Cells with nuclear fluorescence were counted as dead. In each experiment at least 200 transfected cells were counted. […]

Q81-YFP [1] = assay: Co-localization with Q81-YFP aggregates in co-transfected COS-7 cells; type: cell-based; settings: co-expression, 48 hours after transfection
Experimental: The CAG repeat of the Qn-GFP vector (Onodera, O. et al. (1996) FEBS Letters 399, 135-139) were inserted into the XhoI and EcoRI sites of the pEYFP-N1 vector (Clontech, Palo Alto, Calif.) to construct the Qn-YFP vectors. The polyglutamine-binding peptide and control constructs were prepared by ligating synthetic oligonucleotides into the XhoI and BamHI sites of the pECFP-N1 vector (Clontech) to obtain glutamine binding peptide 1-CFP (QBP1-CFP), scrambled QBP1-CFP (SCR-CFP), and a computer-generated random peptide-CFP (RAN)-CFP. The insert of QBP1-CFP was duplicated by PCR to obtain a tandem repeat of QBP1-CFP ((QBP1)2-CFP). The sequence of all constructs was confirmed by DNA sequencing. The first methionine of YFP or CFP was changed to isoleucine by PCR site-directed mutagenesis to eliminate translation of the fluorescent protein without the polyglutamine domain. The sizes of the fluorescent fusion proteins were confirmed by western blotting.
COS-7 cells were grown and maintained in Dulbecco's modified Eagles' medium (DMEM) supplemented with 10% fetal calf serum (FCS). Cells were transfected with Effectene according to manufacturer's instructions (Qiagen GmbH, Hilden, Germany). Cells were examined 48 hours after transfection using a Zeiss fluorescence microscope equipped with YFP/CFP filter sets (Omega Optical Inc., Brattleboro, Vt.). The percentage of cells with aggregates was calculated by dividing the number of cells with aggregates by the total number of fluorescent cells, multiplied by 100. Cell viability was examined 48 hours after transfection using ehtidium homodimer (Molecular Probes, Eugene, Oreg.). Cells were incubated with 5 μM ethidium homodimer for 30 minutes (37° C.) and then examined under a fluorescence microscope equipped with a rhodamine filter set. Cells with nuclear fluorescence were counted as dead. In each experiment at least 200 transfected cells were counted. Cells expressing random peptide-CFP (RAN-CFP) and polyglutamine-YFP (Qn-YFP) were used as a control to calculate the relative difference in aggregate formation and cell death. […]

Q19-YFP = assay: Intracellular distribution of Q19-YFP in co-transfected COS-7 cells; type: cell-based
Experimental: as §5
as §6, with “dead.” for “dead. In each experiment at least 200 transfected cells were counted.”

Q45-YFP = Q45-YFP aggregate formation in co-transfected COS-7 cells; type: cell-based; settings: COS-7, 48 hours
Experimental: as §4, with “t-test) […]” for “t-test)”
as §6

polyglutamine = assay: In vitro polyglutamine aggregation, polyarginine transport peptide; type: biochemical
[2] = tested on: COS 7 cells expressing Q81-YFP; assay: Peptides added to transfected COS 7 cells expressing Q81-YFP: cell death; type: cell-based; settings: for effect on cell death (in words): peptide added to cells
Excerpt: (§7) Several proteins can ferry peptides or proteins into cells through the plasma membrane including HIV transactivator protein (TAT) (SEQ ID NO:37), antennapedia (SEQ ID NO:38), and herpes simplex virus type 1 protein 22 (SEQ ID NO:39) (Prochiantz, Curr Opin Cell Biol. 12:400-406 (2000)). […] The arginine-rich domains of these proteins are sufficient to transport some intact proteins even when fused to non-native proteins. The ability of polyglutamine-binding peptides fused to a TAT fragment to enter transfected COS 7 cells and inhibit polyglutamine aggregation and cell death was examined.

Q81-YFP [3] = assay: Peptides added to transfected COS 7 cells expressing Q81-YFP: aggregation; type: cell-based
Excerpt: as §7

Q81-YFP [4] = assay: Q81-YFP aggregate formation in co-transfected COS-7 cells; type: cell-based; settings: COS-7, 48 hours
Experimental: as §4, with “t-test) […]” for “t-test)”
as §6

thio-Q19 or 35 = assay: Thioredoxin-polyglutamine turbidity assay, nonpathologic thio-Q19 or 35; type: biochemical
Experimental: as §1, §2, §3

[5] = tested on: Q57-YFP induced cell death; assay: Q57-YFP induced cell death in co-transfected COS-7 cells (ethidium homodimer); type: cell-based; settings: peptides fused to CFP, co-expressed; for inhibition of Q57-YFP induced cell death: COS-7, 48 hours, ethidium homodimer
Experimental: FIG. 5. […] Open bar=cells co-transfected with Q57-YFP and RAN-CFP. Hatched bar=cells co-transfected with Q57-YFP and SCR-CFP. Filled bar=cells co-transfected with Q57-YFP and QBP1-CFP. Dotted bar=cells co-transfected with Q57-YFP and (QBPI)2-CFP. COS-7 cells examined 48 hours after transfection using a Zeiss fluorescence microscope with rhodamine filter set. The percentage of dead cells was calculated by counting the number of transfected cells stained with ethidium homodimer and dividing by the total number of transfected cells multiplied times 100. In each experiment at least 200 transfected cells were counted. Experiments were repeated at least three times. Error bars represent standard errors. *=p<0.05; **=p<0.01 (Student's t-test).
COS-7 cells were grown and maintained in Dulbecco's modified Eagles' medium (DMEM) supplemented with 10% fetal calf serum (FCS). Cells were transfected with Effectene according to manufacturer's instructions (Qiagen GmbH, Hilden, Germany). Cells were examined 48 hours after transfection using a Zeiss fluorescence microscope equipped with YFP/CFP filter sets (Omega Optical Inc., Brattleboro, Vt.). The percentage of cells with aggregates was calculated by dividing the number of cells with aggregates by the total number of fluorescent cells, multiplied by 100. Cell viability was examined 48 hours after transfection using ehtidium homodimer (Molecular Probes, Eugene, Oreg.). Cells were incubated with 5 μM ethidium homodimer for 30 minutes (37° C.) and then examined under a fluorescence microscope equipped with a rhodamine filter set. Cells with nuclear fluorescence were counted as dead. In each experiment at least 200 transfected cells were counted. Cells expressing random peptide-CFP (RAN-CFP) and polyglutamine-YFP (Qn-YFP) were used as a control to calculate the relative difference in aggregate formation and cell death. Experiments were repeated at least four times.
The relationship between polyglutamine protein aggregation and cell death is controversial. To determine whether QBP1 or tandem-QBP1 inhibit polyglutamine-induced cell death, cell membrane permeability to ethidium homodimer was assayed. The membranes of living cells are impermeable to ethidium homodimer and permeability to ethidium homodimer is a well-established measure of cell death. Ethidium homodimer undergoes a 30-fold increase in fluorescence upon binding to nucleic acid allowing easy detection with a fluorescence microscope using a rhodamine filter. QBP1 and tandem QBP1 ((QBP1)2) fused to CFP inhibit Q57-YFP induced cell death (FIG. 5). […] Similar results have also been observed with Q45- and Q81-YFP (not shown).

Q57-YFP = Q57-YFP aggregate formation in co-transfected COS-7 cells; type: cell-based; settings: COS-7, 48 hours
Experimental: as §4, with “t-test) […]” for “t-test)”
as §6

[6] = 5 μm peptide and 15 μM thio-polyglutamine
[7] = compared to cells co-expressing RAN-CFP
[8] = TAT-fused peptides, 10 μm peptide and 15 μM thio-polyglutamine
[9] = versus random peptide fused to TAT

Q81-YFP, sequence (as listed by the source): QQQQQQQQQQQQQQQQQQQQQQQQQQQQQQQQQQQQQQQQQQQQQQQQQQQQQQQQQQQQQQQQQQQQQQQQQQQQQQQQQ
thio-Q62, sequence (as listed by the source): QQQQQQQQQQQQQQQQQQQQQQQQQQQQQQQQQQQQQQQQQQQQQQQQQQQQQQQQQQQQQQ
Q45-YFP, sequence (as listed by the source): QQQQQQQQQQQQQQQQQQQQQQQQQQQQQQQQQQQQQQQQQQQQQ
Q57-YFP, sequence (as listed by the source): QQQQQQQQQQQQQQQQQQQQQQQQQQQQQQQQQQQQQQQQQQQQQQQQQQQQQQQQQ

WKWW
inhibition of polyglutamine-thioredoxin aggregation (FIG. 6 and 7) (thio-Q62): does not exhibit substantial inhibition of aggregation

WKWWVWKWW
Ability to Inhibit Aggregation (thio-Q62; [6]): ++ (++ = 50% inhibition)

WKWWPFD
inhibition of polyglutamine-thioredoxin aggregation (FIG. 6 and 7) (thio-Q62): some activity at high concentration

QBP1-CFP: QBP1 fused to cyan fluorescent protein, expressed in COS-7 cells (SNWKWWPGIFD; also: fused to cyan fluorescent protein)
effect on percentage of cells with polyglutamine aggregates (Qn-YFP): reduced the percentage of cells with polyglutamine aggregates | co-localization with Q81-YFP aggregates (Q81-YFP [1]): co-localization | effect of co-expression on Q19-YFP distribution (Q19-YFP): unaffected | reduction of Q45-YFP aggregation (Q45-YFP; [7]): 39%

WKWWPGIFD-GGRRRRRRRR (WKWWPGIFDGGRRRRRRRR)
inhibition of in vitro polyglutamine aggregation (polyglutamine): inhibits | effect on cell death (in words) [2]: inhibits | effect on aggregation in cells (in words) (Q81-YFP [3]; peptide added to cells): inhibits

WKWWVWKWWP-TAT (WKWWVWKWWPGGYGRKKRRQRRR)
Ability to Inhibit Aggregation (thio-Q62; [8]): ++++ (++++ = full inhibition)

SNWKWWPGIFD [QBP1]
effect on percentage of cells with polyglutamine aggregates (Qn-YFP): decreases the number of cells containing polyglutamine aggregates | reversal of thio-Q62 aggregation (thio-Q62; peptide added after aggregation): did not reverse aggregation | inhibition of thio-Q62 aggregation (in words) (thio-Q62): potently inhibited | inhibition of thio-Q62 aggregation (in words) (thio-Q62; listed as QBP 1): inhibits thio-Q62 aggregation in a concentration-dependent pattern | effect on Q81-YFP aggregation (in words) (Q81-YFP [4]): did not reach statistical significance | effect on turbidity of nonpathologic thio-Q19 or 35 (thio-Q19 or 35): no effect | inhibition of Q57-YFP induced cell death [5]: inhibit; also recorded: inhibits polyglutamine-mediated cell death | reduction of Q57-YFP aggregation (Q57-YFP; [7]): 26%

WVWWPGIFD
Ability to Inhibit Aggregation (thio-Q62; [6]): +++ (+++ = 75% inhibition)

SCR-CFP: scrambled QBP1 fused to cyan fluorescent protein (WPIWSKGNDWF; also: fused to cyan fluorescent protein) [reference compound]
co-localization with Q81-YFP aggregates (Q81-YFP [1]): did not co-localize | effect on Q81-YFP aggregation (in words) (Q81-YFP [4]): did not alter aggregation | effect on Q45-YFP aggregation (in words) (Q45-YFP): did not alter aggregation | effect on Q57-YFP aggregation (in words) (Q57-YFP): did not alter aggregation

WKWWPGIFD
Ability to Inhibit Aggregation (thio-Q62; [6]): ++++ (++++ = full inhibition) | effect on cell death (in words) [2]: no effect | effect on aggregation in cells (in words) (Q81-YFP [3]; peptide added to cells): no effect

WKWWPGIFD-TAT (WKWWPGIFDGGYGRKKRRQRRR)
Ability to Inhibit Aggregation (thio-Q62; [8]): +++ (+++ = 75% inhibition) | inhibition of cell death [2, 9]: 39% | percentage of transfected cells that died ([2]; within 72 hours): 6.0% | percentage of transfected cells with Q81-YFP aggregates (Q81-YFP [3]; peptide added to cells): 22.1% | inhibition of Q81-YFP aggregation (Q81-YFP [3]; [9]): 32%

SNWKWWPGIFDSNWKWWPGIFD [(QBP1)2, tandem repeat of QBP1]
inhibition of cell death compared with monomer QBP1 [5]: more effective | inhibition of Q57-YFP induced cell death [5]: inhibit
